Patent US10978281B2, “Method to obtain unbiased identification of interaction of test compounds with the proteome” (Institute for Systems Biology, priority 2015, dated 2021)

Assays:
Rv0289/EspG3 = Rv0289/EspG3 (Mycobacterium tuberculosis, UniProt P9WJC7)
DHFR (Rv2763c) = DHFR (Rv2763c) (Mycobacterium tuberculosis, UniProt P9WNX1); type: binding; conditions: melting curve, M. tuberculosis lysate; Tm of DHFR without P218 is 57° C.
Sequence of DHFR (Rv2763c) (P9WNX1 whole entry): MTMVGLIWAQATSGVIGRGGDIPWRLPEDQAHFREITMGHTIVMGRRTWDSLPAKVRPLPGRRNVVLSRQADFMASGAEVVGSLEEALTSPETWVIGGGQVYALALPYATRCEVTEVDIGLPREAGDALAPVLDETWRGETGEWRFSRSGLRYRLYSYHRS

Sequence of Rv0289/EspG3 (P9WJC7 whole entry): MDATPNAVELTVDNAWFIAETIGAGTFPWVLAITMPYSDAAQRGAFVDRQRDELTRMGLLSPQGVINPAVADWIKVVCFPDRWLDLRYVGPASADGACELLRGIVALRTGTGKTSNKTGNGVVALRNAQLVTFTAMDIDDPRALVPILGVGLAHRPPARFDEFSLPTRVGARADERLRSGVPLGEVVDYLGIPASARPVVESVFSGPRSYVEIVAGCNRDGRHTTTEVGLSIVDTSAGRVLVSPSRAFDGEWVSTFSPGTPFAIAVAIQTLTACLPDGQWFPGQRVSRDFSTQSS

## CCc1nc(N)nc(N)c1OCCCOc1ccccc1CCC(=O)O [P218]
Rv0289/EspG3
  difference in the Tm values in the presence and absence of compound: no difference
DHFR (Rv2763c)
  temperature at the inflection point (Tm) of DHFR in the presence of P218: 60.9 °C
